Results from patent EP4050002A1, “ANTI-PROLIFERATIVE AGENTS” (First Health Pharmaceuticals B.V., priority 2021, dated 2022).
Like-named read-outs stand apart in the source and are kept apart here.

How the values were obtained:
A375 cell line = assay: Cytotoxicity, cell count method; assay type: cell-based; settings: Homo sapiens, A-375, A375, 72 hours of incubation
Procedure: (§1) The anti-tumor activity of the compounds of the present invention was evaluated as the effect on the proliferation and survival of tumor cells by counting the number of living cells in presence or absence of the compounds ("cell count method"), and as the effect on the viability and metabolic activity of the cells, by using particular substrates that are converted by cellular enzymes into coloured or luminescent products, proportionally with metabolic activity and state of the cell, such as the MTS tetrazolium compound ("MTS method") or luciferin ("ATP-based method") respectively.
(§2) Cells were seeded at 3 to 5 x 10^4 cells/well density depending on cell lines and maintained at 37°C in 5% CO2. After 24 hours cells were treated with ascending concentrations of the investigational compounds and the reference (5-fluoro-Uracyl) in a range from 0 to 100 µM. Compounds were dissolved in DMSO which final concentration in each well was 0.5% v:v. After 72 h of incubation with compounds, the cells were detached with trypsin and re-suspended in 1 ml of complete medium; the cell number was evaluated using a Z2 Coulter Counter ("cell count method") (Attallah and Johnson, A simple highly sensitive methods for the determination of cell viability using an electronic particle analyzer, Coulter counter J. Immunol. Methods. 1981, 41, 155; Leonardi et al., Activated kinase screening identifies the IKBKE oncogene as a positive regulator of autophagy. Autophagy, 2019, 15, 312). Alternatively, after the 72 hours of incubation with compounds, the MTS solution (CellTiter 96® AQueous One Solution Cell Proliferation Assay) is added to each well and absorbance at 490 nm wavelength is read after 2 hours of incubation ("MTS method"). Results in Tables 8-13, 17, 18 were obtained with the cell count method. Results in Tables 14-15 were obtained with the MTS method. Results in Table 16 were obtained with ATP-based method.

DU145 cell line = assay: Cytotoxicity, cell count method; assay type: cell-based; settings: Homo sapiens, DU-145, DU145, 72 hours of incubation
Procedure: as §1, §2

PANC-1 cell line = assay: Cytotoxicity, cell count method; assay type: cell-based; settings: Homo sapiens, PANC-1, 72 hours of incubation
Procedure: as §1, §2

HUH7 cell line = assay: Cytotoxicity, cell count method; assay type: cell-based; settings: Homo sapiens, Huh-7, HUH7, 72 hours of incubation
Procedure: as §1, §2

U87 = assay: Cytotoxicity, cell count method; assay type: cell-based; settings: Homo sapiens, U-87 MG, U87, 72 hours of incubation
Procedure: as §1, §2

A549 Red-FLuc = assay: Cytotoxicity, cell count method; assay type: cell-based; settings: Homo sapiens, 72 hours of incubation
Procedure: as §1, §2

A549 = assay: Cytotoxicity, cell count method; assay type: cell-based; settings: Homo sapiens, A549, 72 hours of incubation
Procedure: as §1, §2

CALU1 = assay: Cytotoxicity, cell count method; assay type: cell-based; settings: Homo sapiens, Calu-1, CALU1, 72 hours of incubation
Procedure: as §1, §2

SK-LU1 = assay: Cytotoxicity, cell count method; assay type: cell-based; settings: Homo sapiens, SK-LU-1, SK-LU1, 72 hours of incubation
Procedure: as §1, §2

[1] = Plasma protein binding (rapid equilibrium dialysis); assay type: in vitro ADME; settings: for fraction unbound at 5 h, 10 µM: read-out: % Bound in Plasma ± SD (converted); for recovery at 5 h, 10 µM: read-out: % Recovery ± SD
Procedure: In vitro evaluation of test compounds for protein binding in plasma was performed using the rapid equilibrium dialysis method. Ready to use PBS, 9.07-10.00 g, (Sigma Aldrich, catalogue code P3813) was dissolved in 1l of MilliQ water and pH was adjusted to 7.4. 10 mM stock of the test compound was prepared in DMSO. 1 mM solution was prepared by diluting 10 mM stock in methanol. 10 µM working stock was prepared in plasma by spiking 3 µl of 1 mM solution into 297 µl of plasma. An aliquot of 200 µl of plasma containing test compound was spiked into donor well (red chamber) of the insert. 350 µl of PBS was spiked into receiver well (white chamber) of the insert. The plate was incubated at 37 °C in thermo-mixer at 400 rpm for 5 hours. The samples were matrix equilibrated with opposite matrix: 25 µl of plasma sample was matched with 25 µl of blank buffer (PBS) and 25 µl of buffer sample was matched with 25 µl of plasma.
Matrix matched samples were precipitated with 200 µl of acetonitrile containing Telmisartan 100 ng/ml as internal standard. Buffer samples were of phosphate buffer saline pH 7.4 incubated for 5.5 h along with plasma samples. Blank samples were the ones matched with Phosphate buffer Saline pH 7.4 maintained at room temperature.
Samples were vortexed at 1000 rpm for 5 min and centrifuged at 4000 rpm for 10 min. Supernatant was separated, diluted 2 fold with water and analyzed in LC-MS/MS.
To control samples were processed immediately after the preparation of plasma working stock solutions. These samples serve as a measure for calculating the percentage recovery from plasma and buffer of test compounds. The percentage of plasma unbound (% Unbound) and bound (% Bound) fractions were calculated by the following equations: %Unbound = (1−((Tc−Fc))/(Tc))∗100 [formula] %Bound = 100−%Unbound [formula] %Recovery = 100∗(Fc + Tc)/(T0) [formula]
TC = Compound concentration as determined by the calculated concentration on the plasma side of the membrane (donor well); FC = Free compound concentration as determined by the calculated concentration on the buffer side of the membrane (receiver well); T0 = Total compound concentration as determined before dialysis.
The API400 MS and Agilent 1260 Multi sampler LC were used, with 10 uL injection volumes. Typically, plasma protein binding is determined over ≥ 4 hours at 37°C. Under these conditions chemical and/or enzymatic degradation of compounds can occur. The determination of compound recovery is, therefore, of pivotal importance. A low % recovery can flag a variety of potential problems: • The compound is hydrolytically or metabolically unstable • The compound is highly bound to the rapid equilibrium dialysis device • The compound is poorly soluble

MDAMB231 cell line = assay: Cytotoxicity, cell count method; assay type: cell-based, human; settings: Homo sapiens, MDA-MB-231, MDAMB231, 72 hours of incubation
Procedure: as §1, §2

[2] = Tissue distribution after single I.P. administration; assay type: in vivo, male Swiss Albino Mice
K562 cell line = assay: Cytotoxicity, MTS method; assay type: cell-based; settings: Homo sapiens, K562, 72 hours of incubation
Procedure: as §1
Cells were seeded at 3 to 5 x 10^4 cells/well density depending on cell lines and maintained at 37°C in 5% CO2. After 24 hours cells were treated with ascending concentrations of the investigational compounds and the reference (5-fluoro-Uracyl) in a range from 0 to 100 µM. […] After 72 h of incubation with compounds, the cells were detached with trypsin and re-suspended in 1 ml of complete medium; the cell number was evaluated using a Z2 Coulter Counter ("cell count method") (Attallah and Johnson, A simple highly sensitive methods for the determination of cell viability using an electronic particle analyzer, Coulter counter J. Immunol. Methods. 1981, 41, 155; Leonardi et al., Activated kinase screening identifies the IKBKE oncogene as a positive regulator of autophagy. Autophagy, 2019, 15, 312). […]

## CCCCc1cn(-c2ccc(-c3nnc(-c4ccccc4C(F)(F)F)o3)cc2)nn1 [Compound 5]
A375 cell line
  IC50: 940 nM
DU145 cell line
  IC50: 3700 nM
PANC-1 cell line
  IC50: 720 nM
HUH7 cell line
  IC50: 3280 nM
U87
  IC50: 3900 nM
A549 Red-FLuc
  IC50: 6040 nM
A549
  IC50: 350 nM
CALU1
  IC50: 370 nM
SK-LU1
  IC50: 420 nM
[1]; Human plasma
  fraction unbound at 5 h, 10 µM: 0.0022
  recovery at 5 h, 10 µM: 79 ± 0.99%
[1]; Mouse plasma
  fraction unbound at 5 h, 10 µM: 0.0003
  recovery at 5 h, 10 µM: 83.7 ± 13.4%
[1]; Rat plasma
  fraction unbound at 5 h, 10 µM: 0.0005
  recovery at 5 h, 10 µM: 63.4 ± 2.74%
MDAMB231 cell line
  IC50: 580 nM
[2]; 4 hours after single administration I.P. 45 mg/Kg
  Kidney to plasma: 11.5
[2]; 8 hours after single administration I.P. 45 mg/Kg
  Kidney to plasma: 9.2
[2]; 24 hours after single administration I.P. 45 mg/Kg
  Kidney to plasma: 9.3
K562 cell line
  IC50: 20300 nM
